Reference: ChEMBL document CHEMBL4138317, “Deciphering the Inhibition of the Neuronal Calcium Sensor 1 and the Guanine Exchange Factor Ric8a with a Small Phenothiazine Molecule for the Rational Generation of Therapeutic Synapse Function Regulators” (J Med Chem, 2018)
Calls of active or inactive are those of the source. The rule behind the calls is not given here.

What was measured:
Frequenin-2 = target: T1, Frequenin-2 (Drosophila melanogaster, UniProt Q9VWX8); assay: Binding affinity to drosophila NCS1 expressed in Escherichia coli BL21 (DE3) by fluorescence emission assay; conditions: read-out: Kd(app)
T1 sequence (Q9VWX8 whole entry): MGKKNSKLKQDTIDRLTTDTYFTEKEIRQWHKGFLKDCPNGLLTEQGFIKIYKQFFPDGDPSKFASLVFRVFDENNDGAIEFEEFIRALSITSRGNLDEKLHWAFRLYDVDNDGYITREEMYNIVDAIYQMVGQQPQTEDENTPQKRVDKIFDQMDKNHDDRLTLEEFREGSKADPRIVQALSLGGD

[1] = target: T2, Frequenin-2 (Drosophila melanogaster) (UniProt Q9VWX8); assay: Binding affinity to drosophila NCS1 expressed in Escherichia coli BL21 (DE3) by STD-NMR method
T2 sequence (whole entry): T1 sequence (Q9VWX8 whole entry)

[2] = target: Neuronal calcium sensor 1/Synembryn-A (Homo sapiens) (UniProt P62166+Q9NPQ8); assay: Inhibition of human NCS1 and V5-tagged Ric8a interaction expressed in HEK293 cells at 20 uM after 24 hrs by Western blot analysis relative to control; assay type: cell-based
[3] = target: Neuronal calcium sensor 1 (Homo sapiens, UniProt P62166); assay: Binding affinity to human NCS1 expressed in Escherichia coli BL21 Star (DE3) by fluorescence emission assay; conditions: read-out: Kd(app)
Sequence of Neuronal calcium sensor 1 (P62166 2-190 limits assumed): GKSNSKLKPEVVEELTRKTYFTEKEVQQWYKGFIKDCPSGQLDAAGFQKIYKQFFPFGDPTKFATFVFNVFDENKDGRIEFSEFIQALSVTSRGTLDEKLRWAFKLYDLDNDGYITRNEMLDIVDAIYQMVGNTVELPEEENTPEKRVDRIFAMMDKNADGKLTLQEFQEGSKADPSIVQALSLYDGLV

Sequence of Neuronal calcium sensor 1/Synembryn-A (Homo sapiens) (P62166 whole entry, looked up): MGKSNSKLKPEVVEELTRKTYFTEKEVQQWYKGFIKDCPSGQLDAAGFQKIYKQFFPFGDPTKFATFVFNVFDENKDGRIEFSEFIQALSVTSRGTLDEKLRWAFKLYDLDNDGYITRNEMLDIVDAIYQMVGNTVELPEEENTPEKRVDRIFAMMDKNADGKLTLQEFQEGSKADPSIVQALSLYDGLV
Sequence of Neuronal calcium sensor 1/Synembryn-A (Homo sapiens) (Q9NPQ8 whole entry, looked up): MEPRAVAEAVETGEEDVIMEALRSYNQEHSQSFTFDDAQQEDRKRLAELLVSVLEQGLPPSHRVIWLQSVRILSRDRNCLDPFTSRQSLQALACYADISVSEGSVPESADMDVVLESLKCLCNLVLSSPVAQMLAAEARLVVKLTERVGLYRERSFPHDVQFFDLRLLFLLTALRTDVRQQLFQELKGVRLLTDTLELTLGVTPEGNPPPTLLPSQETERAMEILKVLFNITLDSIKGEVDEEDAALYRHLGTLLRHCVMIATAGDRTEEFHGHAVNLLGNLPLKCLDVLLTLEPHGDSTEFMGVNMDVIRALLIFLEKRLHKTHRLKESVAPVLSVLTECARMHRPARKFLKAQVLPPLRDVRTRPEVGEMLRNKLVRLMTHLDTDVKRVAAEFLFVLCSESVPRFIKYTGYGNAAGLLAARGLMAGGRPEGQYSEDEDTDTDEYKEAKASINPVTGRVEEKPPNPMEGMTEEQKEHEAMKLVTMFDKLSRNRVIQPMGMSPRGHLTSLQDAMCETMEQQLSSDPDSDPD

Kd (Frequenin-2)	Activity [1]	inhibition [2]	Kd [3]	SMILES
71 µM	Active			O=C(CN1CCCCC1)NN1c2ccccc2Sc2ccccc21
		50%		Cc1sc(NC(=O)CNC(=O)c2ccc(F)cc2)nc1-c1ccccc1
		50%	11.5 µM	COc1ccccc1C(=O)Nc1nc2cc(C(F)(F)F)ccc2s1
1.13 µM		50%	1.25 µM	O=C(CC(c1ccccc1)c1ccccc1)Nc1nc2ccccc2s1
